Assay results published in patent US20130005568A1, “SAFENED HERBICIDAL MIXTURES” (E.I. DU PONT DE NEMOURS AND COMPANY, priority 2011, published 2013).

What was measured:
blackgrass [1] = assay: Test F: preemergence plant response rating; format: in vivo, Alopecurus myosuroides Huds; conditions: blackgrass, preemergence, greenhouse, three weeks, 0-100 scale
Description: (§1) For all of the following biological tests, plant response ratings were based on a 0-100 scale where zero is growth equivalent to that of untreated plants (no plant response) and 100 represents no additional growth occurring after herbicide treatment.
(§2) Herbicide mixtures were formulated, dissolved/dispersed in water, and sprayed preemergence to the crops: winter wheat (Triticum aestivum L.) and winter barley (Hordeum vulgare L.), and the weed: blackgrass (Alopecurus myosuroides Huds). Treated plants were grown under greenhouse conditions for three weeks before visual evaluations of plant responses were recorded.

spring wheat = assay: Test E: postemergence plant response rating; format: in vivo, Triticum aestivum L.; conditions: spring wheat, postemergence, greenhouse, two weeks, 0-100 scale
Description: as §1
(§3) Herbicide mixtures were formulated, dissolved/dispersed in water containing 0.25% non-ionic surfactant, sprayed postemergence to the crops: winter wheat (Triticum aestivum L.), spring wheat (Triticum aestivum L.), winter barley (Hordeum vulgare L.) and spring barley (Hordeum vulgare L.), and the weeds: blackgrass (Alopecurus myosuroides Huds.), lambsquarters (Chenopodium album L.) and pigweed (Amaranthus retroflexus L.). Treated plants were grown under greenhouse conditions for two weeks before visual evaluations of plant responses were recorded.

winter wheat [2] = assay: Test E: postemergence plant response rating; format: in vivo, Triticum aestivum L.; conditions: winter wheat, postemergence, greenhouse, two weeks, 0-100 scale
Description: as §1, §3

winter barley [3] = assay: Test F: preemergence plant response rating; format: in vivo, Hordeum vulgare L.; conditions: winter barley, preemergence, greenhouse, three weeks, 0-100 scale
Description: as §1, §2

winter barley [4] = assay: Test E: postemergence plant response rating; format: in vivo, Hordeum vulgare L.; conditions: winter barley, postemergence, greenhouse, two weeks, 0-100 scale
Description: as §1, §3

spring barley = assay: Test E: postemergence plant response rating; format: in vivo, Hordeum vulgare L.; conditions: spring barley, postemergence, greenhouse, two weeks, 0-100 scale
Description: as §1, §3

lambsquarters = assay: Test E: postemergence plant response rating; format: in vivo, Chenopodium album L.; conditions: lambsquarters, postemergence, greenhouse, two weeks, 0-100 scale
Description: as §1, §3

blackgrass [5] = assay: Test E: postemergence plant response rating; format: in vivo, Alopecurus myosuroides Huds.; conditions: blackgrass, postemergence, greenhouse, two weeks, 0-100 scale
Description: as §1, §3

pigweed = assay: Test E: postemergence plant response rating; format: in vivo, Amaranthus retroflexus L.; conditions: pigweed, postemergence, greenhouse, two weeks, 0-100 scale
Description: as §1, §3

winter wheat [6] = assay: Test F: preemergence plant response rating; format: in vivo, Triticum aestivum L.; conditions: winter wheat, preemergence, greenhouse, three weeks, 0-100 scale
Description: as §1, §2

[7] = herbicide 32 g ai/ha + Compound 1 125 g ai/ha
[8] = herbicide 64 g ai/ha + Compound 1 125 g ai/ha
[9] = herbicide 10 g ai/ha + Compound 1 125 g ai/ha
[10] = herbicide 20 g ai/ha + Compound 1 125 g ai/ha

COC(=O)c1ccc(C(F)(F)F)nc1S(=O)(=O)NC(=O)Nc1nc(OC)cc(OC)n1 [Flupyrsulfuron-methyl-sodium, flupyrsulfuron-methyl-sodium]
Observed Response, Herbicide mixture with Compound 1 (blackgrass [1]; [7]): 90 | Observed Response, Herbicide alone (blackgrass [1]; herbicide 32 g ai/ha): 95 | Observed Response, Herbicide mixture with Compound 1 (blackgrass [1]; [8]): 97 | Observed Response, Herbicide alone (blackgrass [1]; herbicide 64 g ai/ha): 95 | Observed Response, Herbicide mixture with Compound 1 (spring wheat; [9]): 3 | Observed Response, Herbicide alone (spring wheat; herbicide 10 g ai/ha): 18 | Observed Response, Herbicide mixture with Compound 1 (spring wheat; [10]): 0 | Observed Response, Herbicide alone (spring wheat; herbicide 20 g ai/ha): 22 | Observed Response, Herbicide mixture with Compound 1 (winter wheat [2]; [9]): 0 | Observed Response, Herbicide alone (winter wheat [2]; herbicide 10 g ai/ha): 17 | Observed Response, Herbicide mixture with Compound 1 (winter wheat [2]; [10]): 0 | Observed Response, Herbicide alone (winter wheat [2]; herbicide 20 g ai/ha): 18 | Observed Response, Herbicide mixture with Compound 1 (winter barley [3]; [7]): 40 | Observed Response, Herbicide alone (winter barley [3]; herbicide 32 g ai/ha): 75 | Observed Response, Herbicide mixture with Compound 1 (winter barley [3]; [8]): 35 | Observed Response, Herbicide alone (winter barley [3]; herbicide 64 g ai/ha): 90 | Observed Response, Herbicide mixture with Compound 1 (winter barley [4]; [9]): 12 | Observed Response, Herbicide alone (winter barley [4]; herbicide 10 g ai/ha): 42 | Observed Response, Herbicide mixture with Compound 1 (winter barley [4]; [10]): 27 | Observed Response, Herbicide alone (winter barley [4]; herbicide 20 g ai/ha): 42 | Observed Response, Herbicide mixture with Compound 1 (spring barley; [9]): 23 | Observed Response, Herbicide alone (spring barley; herbicide 10 g ai/ha): 47 | Observed Response, Herbicide mixture with Compound 1 (spring barley; [10]): 43 | Observed Response, Herbicide alone (spring barley; herbicide 20 g ai/ha): 53 | Observed Response, Herbicide mixture with Compound 1 (lambsquarters; [9]): 83 | Observed Response, Herbicide alone (lambsquarters; herbicide 10 g ai/ha): 78 | Observed Response, Herbicide mixture with Compound 1 (lambsquarters; [10]): 87 | Observed Response, Herbicide alone (lambsquarters; herbicide 20 g ai/ha): 87 | Observed Response, Herbicide mixture with Compound 1 (blackgrass [5]; [9]): 99 | Observed Response, Herbicide alone (blackgrass [5]; herbicide 10 g ai/ha): 98 | Observed Response, Herbicide mixture with Compound 1 (blackgrass [5]; [10]): 99 | Observed Response, Herbicide alone (blackgrass [5]; herbicide 20 g ai/ha): 99 | Observed Response, Herbicide mixture with Compound 1 (pigweed; [9]): 96 | Observed Response, Herbicide alone (pigweed; herbicide 10 g ai/ha): 100 | Observed Response, Herbicide mixture with Compound 1 (pigweed; [10]): 97 | Observed Response, Herbicide alone (pigweed; herbicide 20 g ai/ha): 99 | Observed Response, Herbicide mixture with Compound 1 (winter wheat [6]; [7]): 10 | Observed Response, Herbicide alone (winter wheat [6]; herbicide 32 g ai/ha): 30 | Observed Response, Herbicide mixture with Compound 1 (winter wheat [6]; [8]): 33 | Observed Response, Herbicide alone (winter wheat [6]; herbicide 64 g ai/ha): 40
